Literature values as cited in patent publication US12370233B2, “Depot systems comprising glatiramer acetate” (MAPI PHARMA LTD., priority 2016, dated 2025).

Settings: as reported by Rotstein et al., JAMA Neurol., 2015

Substance	NEDA at one year
daclizumab [ZINBRYTA®]	39%
natalizumab [TYSABRI®]	47%
